These are literature values, as cited in patent US20210169807A1, “PHARMACEUTICAL COMPOSITION COMPRISING AN ATYPICAL ANTIPSYCHOTIC AGENT AND METHOD FOR THE PREPARATION THEREOF” (priority 2018, published 2021).

Molecules are shown by their SMILES. Like-named read-outs stand apart in the source and are kept apart here.

On to `Cc1nc2n(c(=O)c1CCN1CCC(c3noc4cc(F)ccc34)CC1)CCCC2O` (stereo not drawn) [Paliperidone, 3-[2-[4-(6-fluoro-1,2-benzisoxazol-3-yl)-1-piperidinyl]ethyl]-6,7,8,9-tetrahydro-9-hydroxy-2-methyl-4H-pyrido[1,2-a]pyrimidin-4-one], for which the solubility result by setting is: (in 0.1N HCl) “slightly soluble”; (in dichloromethane) “sparingly soluble”; (in water) “insoluble”.
